The assay relates to human AML cell line MV4;11. The assay is described as follows: Nude mouse xenograft model derived from human AML cell line MV4;11: tumor growth. It counts as in vivo. As to conditions: 21 days, MV4;11 xenograft. Here is the method: MV4;11 (CRL-9591) cells were obtained from ATCC. According to the Catalogue of Somatic Mutations in Cancer of the Wellcome Trust Sanger Institute, UK, this cell line carries a mutation in the FLT3 gene. Cells were cultured in T175 tissue culture flasks at 37° C. and 5% CO2. The medium used was IMDM supplemented with 10% fetal calf serum, 1% NEAA, 1% sodium pyruvate and 1% glutamine.
Mice were 8-9 week-old athymic female BomTac: NMRI-Foxn1^nu purchased from Taconic, Denmark. After arrival in the animal facility, mice were allowed to adjust to ambient conditions for at least 3 days before they were used for experiments. They were housed in Macrolon® type II cages in groups of 5 under standardized conditions at 21.5±1.5° C. temperature and 55±10% humidity. Standardized diet (PROVIMI KLIBA) and autoclaved tap water were provided ad libitum.
To establish subcutaneous tumors, MV4;11 cells were harvested and resuspended in PBS+5% FCS at 5×10^7 cells/ml. 50 μl of the cell suspension containing 2.5×10^6 cells was then injected subcutaneously into the right flank of the mice (1 site per mouse). Growth factor reduced BD Matrigel™ Matrix (BD Biosciences) was added to the cell suspension at a ratio of 1:1 before the injection.
Volasertib (BI 6727) was dissolved in hydrochloric acid (0.1 N), diluted with 0.9% NaCl and injected intravenously into the tail vein. An administration volume of 10 ml per kg body weight was used. The solution was freshly made up each injection day. Decitabine was dissolved in 0.9% NaCl and administered i.p. An administration volume of 10 ml per kg body weight was used.
The tumor diameter was measured three times a week with a caliper. The volume of each tumor [in mm^3] was calculated according to the formula “tumor volume=length*diameter^2*π/6”. To monitor side effects of treatment, mice were inspected daily for abnormalities and body weight was determined three times a week. […] In addition animals with tumor sizes exceeding 2000 mm^3 were sacrificed early during the studies for ethical reasons.
(§1) Animals were treated for 21 days.
as §1, §1
Background: Xenograft models place foreign cells or tissue in a host animal.

The structures appear in SMILES notation.

As to `CC[C@@H]1C(=O)N(C)c2cnc(Nc3ccc(C(=O)N[C@H]4CC[C@H](N5CCN(CC6CC6)CC5)CC4)cc3OC)nc2N1C(C)C` [Volasertib, N-[trans-4-[4-(cyclopropylmethyl)-1-piperazinyl]cyclohexyl]-4-[[(7R)-7-ethyl-5,6,7,8-tetrahydro-5-methyl-8-(1-methylethyl)-6-oxo-2-pteridinyl]amino]-3-methoxy-benzamide], the “T/C (ratio of median tumor volume of treated vs. control tumors)” value came to 76% (Volasertib alone 10 mg/kg i.v. once weekly) and 38% (Volasertib alone 20 mg/kg i.v. once weekly).

In the case of `Nc1ncn([C@H]2C[C@H](O)[C@@H](CO)O2)c(=O)n1` [decitabine, Decitabine], the “T/C (ratio of median tumor volume of treated vs. control tumors)” value is listed as 59% (decitabine alone 1.25 mg/kg i.p. twice weekly on two consecutive days) and 53% (decitabine alone 2.5 mg/kg i.p. twice weekly on two consecutive days).

(Values after patent US20170157159A1, “COMBINATION TREATMENT OF ACUTE MYELOID LEUKEMIA AND MYELODYSPLASTIC SYNDROME I” (Boehringer Ingelheim International GmbH, priority 2013, published 2017).)
